Measured values: patent US6544750B1, “Peptide analogs as selective inhibitors of thrombin activation of protease activated receptor 1” (Thromgen, Inc., priority 1999, dated 2003)
Ends that are not written are not given here.

Experiments:
[1] = system: Normal human lung fibroblasts (NHLF); assay: α-thrombin-induced calcium mobilization in fibroblasts (fura-2); format: cell-based; conditions: 0.2 mM peptide; for Ca2+ % Inhibition At 0.2 mM Peptide: thrombin-induced calcium mobilization in fibroblasts
Method: The second assay developed to assess peptides from the combinatorial libraries uses inhibition of α-thrombin-induced calcium mobilization in fibroblasts. Normal human lung fibroblasts (NHLF) were purchased from Clonetics, San Diego, Calif., an affiliate of Bio-Wittaker, Walkersville, Md. The cytoplasmic free Ca^2+ concentration ([Ca^2+]i) was measured using the fluorescent Ca^2+ indicator fura-2 (Molecular Probes, Inc., Eugene, Oreg.). Suspension of fibroblasts in Hepes-Tyrode's buffer were loaded with fura-2 by incubation at 37° C. with 2 μM fura-2/acetoxymethyl ester for 45 minutes according to the method of Rasmussen et al., J. Biol. Chem. 268, 14322 (1993). The labeled fibroblasts were separated from excess probe by washing by centrifugation at 1000 rpm (180×g). Aliquots of the labeled fibroblasts were transferred into a quartz cuvette with a magnetic stirrer, which was then placed in a thennostatically controlled chamber at 37° C. in a fluorescence spectrophotometer (Perkin-Elmer LS50B spectrofluorometer, Chicago, Ill.). Reagents, test peptide (SEQ ID NO: 5) (from 0.2 mM to effective lower concentration), and α-thrombin (2-4 nM), were sequentially added directly to the cuvette. The excitation wavelengths varied between 340 and 380 nm. Fluorescence was measured by recording emitted light at 510 nm as reported by Fisher et al., Mol Pharm. 35, 195 (1989). The minimum emission was determined on a solubilized fibroblast sample in the presence of 10 mM EDTA; maximum emission was determined on the same sample with 10 mM Ca^2+ added. The intrafibroblast free Ca^2+ concentration was calculated by the method of Grykiewicz et al., J. Biol. Chem. 260, 3440 (1985). The ratio of the fluorescence readings was calculated as R=340/380 nm and processed according to the equation [Ca^2+]i=KD((R−Rmim)/Rmax−R)) (Sf2/Sb2) to determine the intrafibroblast free Ca^2+ concentration. The KD for fura-2 was assumed to be 224 nM. Rmax and Rmin are the maximum and minimum fluorescence ratios measured at the end of the experiment, respectively; Sf2 and Sb2 are the fluorescence values at 380 nm in the absence and presence of saturating [Ca 2+], respectively. The reaction was monitored for 3-5 minutes. […] In FIG. 4, peptide RGDWC (SEQ ID NO: 20) at 0.2 mM inhibited 31% of 4 nM α-thrombin-induced Ca^2+ mobilization in fibroblasts.

[2] = system: platelets (platelet-rich plasma); assay: γ-thrombin-induced platelet aggregation in platelet-rich plasma; format: cell-based, human; conditions: for Fold Increase in Aggregation Inhibition over RPPGF: γ-thrombin, compared to RPPGF at 0.2 mM
Method: Fresh whole blood was collected and mixed with 0.013 M sodium citrate and platelet-rich plasma was prepared according to the method of Meloni et al., J. Biol. Chem. 266, 6786 (1991). Platelet-rich plasma with a normalized platelet count between 2-2.5×10^8 platelets/ml was added to a cuvette of an aggregometer (Chronlog Corp., Havertown, Pa.), standardized using the protocol of Meloni et al., supra. Peptides to be examined were added to the cuvette and the mixture stabilized for a few moments. Once the baseline was stabilized, γ-thrombin (10-70 NM) (Haematologic Technologies, Essex Junction, Vt.) was added to determine the minimal concentration of the agonist necessary to achieve full platelet aggregation. All investigations with peptides were performed using threshold concentrations of γ-thrombin. Aggregation was allowed to proceed for 5 minutes before stopping. When ADP-induced platelet aggregation studies were performed, 1-5 μM ADP (Sigrna) was added to the cuvette containing platelet-rich plasma.

[3] = target: biotin-NAT12 (NATLDPRSFLLR, peptide from PAR1) (Homo sapiens, UniProt P25116); assay: Biotin-NAT12 binding assay to peptides coupled to microtiter plates; conditions: relative to RPPGF given arbitrary binding level of 1
Method: A third assay was developed to ascertain the ability of biotin-NAT12 (NATLDPRSFLLR, SEQ ID NO: 41) to directly bind to peptides linked to microtiter plates. In this assay, peptide analogs were linked to microtiter plate cuvette wells by incubation of the peptide in 0.1 M Na2CO3, pH 9.6 buffer overnight at 4° C. After coupling the peptide to the cuvette well, the wells were dumped and each well was blocked with 1% bovine serun albumin in 0.01 M Na3PO4, 0.15 M NaCl, at pH 7.4. After incubation for 1 hour, the wells were dumped and washed three times with PBS-Tween. The wells were then incubated with biotin-NAT12. The amount of biotin-NAT12 bound was determined by adding streptavidin-peroxidase followed by adding turbo TMB (Pierce).
In decreasing order of binding level, these peptides include: RGKSC, RGKMC, RGKHC, RGKKC, RGKFC, RGKLC, RGKWC, and RGKVC (SEQ ID NOS 18, 7, 13, 14, 11, 1, 5 and 19, respectively). […] The best to least RGDO4C (SEQ ID NO: 44) peptides to bind biotin-NAT12 listed in Table VI are: RGDSC, RGDGC, RGDQC, RGDEC, RGDIC, RGDPC, RGDDC, and RGDYC (SEQ ID NOS 34, 28, 23, 22, 36, 38, 27 and 35, respectively). A solid phase peptide-peptide binding assay was used to determine biotin-NAT12 binding to library peptides. Test peptides in 0.1 M Na2CO3, pH 9.6 buffer, at 10 μg/well in 50 μl volume, were coupled to microtiter plate wells by overnight incubation at 4° C. After incubation, the contents of the wells were discarded and the wells were washed with a pH 7.4 buffer containing 0.01 M Na3PO4, 0.15 M NaCl, and 0.01% Tween 20. After blocking each well with 1% radioimmunoassay grade bovine serum albumin, the linked peptides were incubated with 100 μl of 100 μM biotin-NAT12 for 1 hour at 37° C. After incubation, the contents of the wells were dumped and the wells were washed three times (100 μl/well each time) with the buffer identified above. Each well then was incubated with 100 μl of 2 μg/ml solution of Immuno-Pure streptoavidin horeseradish peroxidase conjugate (Pierce Chemical Co., […], Ill.) for 1 hour at room temperature. The contents of the wells were discarded and the wells were washed three times as described above. The wells were then incubated with 100 μl of peroxidase-specific fast reacting substrate, turbo-3,3′,5,5′-tetramethylbenzidine (turbo-TMB, Pierce) for 5 minutes at room temperature and the developing color reaction was stopped by the addition of 100 μof 1 M phosphoric acid. The absorbance was measured at 450 nm using a Microplate Auto Reader EL311 (Bio-Tek, Winooski, Vt.).

[4] = RGKO4C sublibrary, platelet-rich plasma

Substance | Ca2+ % Inhibition At 0.2 mM Peptide ([1]; RGDO4C sublibrary) | Fold Increase in Aggregation Inhibition over RPPGF ([2]; RGDO4C sublibrary) | Level of Binding to Biotin-NAT12 ([3]; RGDO4C sublibrary) | also measured
Arg-Gly-Asp-Trp-Cys (RGDWC-NH2) [peptide of the H-R-G-D-O4-C-NH2 sublibrary] | 31.9% | 31.7 fold | 0.374 | effect on thrombin-induced Ca2+ mobilization (in words) ([1]; 4 nM α-thrombin): almost had no effect; inhibition of α-thrombin-induced Ca2+ mobilization ([1]; 4 nM α-thrombin, fibroblasts): 31%; concentration down to which peptide inhibited γ-thrombin-induced platelet aggregation ([2]; 70 nM γ-thrombin): ≥ 25 µM; peptide concentration at which γ-thrombin-induced platelet aggregation returned ([2]; 70 nM γ-thrombin): 6.25 µM; peptide concentration that abolished (completely inhibited) γ-thrombin-induced platelet aggregation ([2]; 70 nM γ-thrombin, platelet-rich plasma): 0.2 mM
RGDMC: peptide of the H-R-G-D-O4-C-NH2 sublibrary (H-RGDMC-NH2) | 26.2% | 15 fold | 0.87 | –
RGDLC: peptide of the H-R-G-D-O4-C-NH2 sublibrary (H-RGDLC-NH2) | 0% | 7.5 fold | 0.98 | –
RGKTC: peptide of the H-R-G-K-O4-C-NH2 sublibrary (H-RGKTC-NH2) | – | – | – | Ca2+ % Inhibition At 0.2 mM Peptide ([1]; RGKO4C sublibrary): 26.8%; Fold Increase in Aggregation Inhibition over RPPGF [2, 4]: 4.4 fold; Level of Binding to Biotin-NAT12 ([3]; RGKO4C sublibrary): 0.597
RGDYC: peptide of the H-R-G-D-O4-C-NH2 sublibrary (H-RGDYC-NH2) | 16.4% | 5 fold | 1.05 | –
RGDFC: peptide of the H-R-G-D-O4-C-NH2 sublibrary (H-RGDFC-NH2) | 30.3% | 25 fold | 0.671 | –
RGDQC: peptide of the H-R-G-D-O4-C-NH2 sublibrary (H-RGDQC-NH2) | 8.45% | 15.8 fold | 1.32 | –
RGDVC: peptide of the H-R-G-D-O4-C-NH2 sublibrary (H-RGDVC-NH2) | 2.56% | 15 fold | 0.723 | –
RGKYC: peptide of the H-R-G-K-O4-C-NH2 sublibrary (H-RGKYC-NH2) | – | – | – | Ca2+ % Inhibition At 0.2 mM Peptide ([1]; RGKO4C sublibrary): 0%; Fold Increase in Aggregation Inhibition over RPPGF [2, 4]: 1.3 fold; Level of Binding to Biotin-NAT12 ([3]; RGKO4C sublibrary): 0.94
RGDGC: peptide of the H-R-G-D-O4-C-NH2 sublibrary (H-RGDGC-NH2) | 9.9% | 7.5 fold | 1.39 | –
RGKIC: peptide of the H-R-G-K-O4-C-NH2 sublibrary (H-RGKIC-NH2) | – | – | – | Ca2+ % Inhibition At 0.2 mM Peptide ([1]; RGKO4C sublibrary): 13.8%; Fold Increase in Aggregation Inhibition over RPPGF [2, 4]: 1.3 fold; Level of Binding to Biotin-NAT12 ([3]; RGKO4C sublibrary): 0.98
RGDNC: peptide of the H-R-G-D-O4-C-NH2 sublibrary (H-RGDNC-NH2) | 44.3% | 5 fold | 0.739 | –
RGKRC: peptide of the H-R-G-K-O4-C-NH2 sublibrary (H-RGKRC-NH2) | – | – | – | Ca2+ % Inhibition At 0.2 mM Peptide ([1]; RGKO4C sublibrary): 35.7%; Fold Increase in Aggregation Inhibition over RPPGF [2, 4]: 2.5 fold; Level of Binding to Biotin-NAT12 ([3]; RGKO4C sublibrary): 0.38
RGDIC: peptide of the H-R-G-D-O4-C-NH2 sublibrary (H-RGDIC-NH2) | 9.3% | 3.8 fold | 1.22 | –
